Data reported in PMC5951806, “Rapid labelling and covalent inhibition of intracellular native proteins using ligand-directed N-acyl-N-alkyl sulfonamide” (Nature Communications, 2018).
Where “and” joins values, the source holds several entries; their conditions need not be identical. Equal values may be shown once.

Assays:
Test in all cases: TMT LC-MSMS of 11-labelled proteins
Type in all cases: cell-based
[1] = target: Heat shock protein HSP 90-beta (HSP90AB1) (Homo sapiens, UniProt P08238)
Excerpt: (§1) The labelled proteins were enriched by immunoprecipitation with an anti-fluorescein antibody and tryptically digested in gel. Digested peptides were modified with Light- (L-), Medium- (M-), or Heavy- (H-) TMT reagent for samples treated with 11, 11 with PU-H71 (as competitive condition), or DMSO (vehicle), respectively, and mixed in a 1:1:1 ratio for LC-MSMS analysis. We performed three experimental replicates, in which proteins detected and quantified at least twice were selected as identified proteins. According to the related approach of Cravatt et al[44], the proteins having L/H (11/DMSO) ratios >5 were defined as 11-labelled proteins. […] On the basis of these criteria, we identified 6 proteins that react with 11, including three ligand-specific targets (Hsp90α (HSP90AA1), Hsp90β (HSP90AB1), and Grp94 (HSP90B1)) and three off-targets (Trifunctional enzyme subunit α (HADHA), Tubulin-α (TUBA1B), and ADP/ATP translocase 3 (SLC25A6)) (Fig. 5d, e and Supplementary Data 1). […] Grp94, a HSP90 isomer, was previously reported to be a PU-H71 specific target. TRAP-1, another Hsp90 isomer that can bind PU-H71, on the other hand, was not identified as 11-target by our criteria.
(§2) SKBR3 human breast cancer cells (2.0 × 10^6 cells) were seeded on a 10 cm dish and cultured for 3 days in McCoy’s 5A in a 5% CO2 humidified chamber at 37 °C. […] As competitive experiments, the labelling was conducted in the presence of PU-H71 (10 µM). After labelling, the cells were washed twice with PBS, and lysed with RIPA buffer. […] The supernatant was mixed with chilled acetone and incubated overnight at −80 °C. The protein precipitates were solubilized by sonication in 1 mL of RIPA buffer containing 1% SDS, and then 10-fold diluted with RIPA buffer to reduce SDS concentration to c.a. 0.1%. The protein solution (containing 1 mg of protein) was mixed with Protein G Sepharose 4 Fast Flow (GE Healthcare) and rotated at 4 °C for 1 h. After removal of the beads, the remaining supernatant was mixed with anti-fluorescein antibody (Abcam, ab19491, 7:10000) and rotated at 4 °C for 1 h, followed by addition of fresh Protein G Sepharose 4 Fast Flow and further incubation at 4 °C for 4 h. The beads were washed five times with RIPA buffer and once with PBS. Proteins were eluted from the beads by addition of 2 × sample buffer containing 100 mM DTT and boiling at 95 °C for 5 min. The samples were subjected to a 7.5% SDS–PAGE gel (Mini-PROTEAN TGX Gels, BioRad), and electrophoresed as the migration distance of dye front is about 10 mm. Each lane was excised (height, 10 mm), and treated with a 47.5% methanol / 47.5% pure water / 5% acetic acid for 20 min, a 50% methanol / 50% pure water for 10 min, and in pure water for 10 min. The gel pieces were dehydrated with 100% acetonitrile, and then swelled with 200 μL of 100 mM TEAB (triethylamine bicarbonate) buffer containing 10 mM DTT and heated at 56 °C for 30 min. The solutions were replaced with 200 µL of 100 mM TEAB buffer containing 55 mM iodoacetamide and incubated for 45 min in the dark. The gel pieces were washed with 100 mM TEAB buffer and dehydrated in acetonitrile. This step was repeated once. The gels were reswelled in 100 mM TEAB buffer containing 10 ng/μL Sequencing Grade Trypsin (Promega) and incubated overnight at 37 °C. To the gels, 50 μL of an extraction solution (50% acetonitrile, 0.1% TFA) was added. After 10 min incubation, the supernatants were collected to new tubes, and this process was repeated twice. Extracted peptides were dried in vacuo and reconstituted with 25 μL of 100 mM TEAB buffer.

[2] = target: Stress-70 protein, mitochondrial (HSPA9) (Homo sapiens, UniProt P38646)
Chain of Stress-70 protein, mitochondrial (HSPA9) (P38646 47-679): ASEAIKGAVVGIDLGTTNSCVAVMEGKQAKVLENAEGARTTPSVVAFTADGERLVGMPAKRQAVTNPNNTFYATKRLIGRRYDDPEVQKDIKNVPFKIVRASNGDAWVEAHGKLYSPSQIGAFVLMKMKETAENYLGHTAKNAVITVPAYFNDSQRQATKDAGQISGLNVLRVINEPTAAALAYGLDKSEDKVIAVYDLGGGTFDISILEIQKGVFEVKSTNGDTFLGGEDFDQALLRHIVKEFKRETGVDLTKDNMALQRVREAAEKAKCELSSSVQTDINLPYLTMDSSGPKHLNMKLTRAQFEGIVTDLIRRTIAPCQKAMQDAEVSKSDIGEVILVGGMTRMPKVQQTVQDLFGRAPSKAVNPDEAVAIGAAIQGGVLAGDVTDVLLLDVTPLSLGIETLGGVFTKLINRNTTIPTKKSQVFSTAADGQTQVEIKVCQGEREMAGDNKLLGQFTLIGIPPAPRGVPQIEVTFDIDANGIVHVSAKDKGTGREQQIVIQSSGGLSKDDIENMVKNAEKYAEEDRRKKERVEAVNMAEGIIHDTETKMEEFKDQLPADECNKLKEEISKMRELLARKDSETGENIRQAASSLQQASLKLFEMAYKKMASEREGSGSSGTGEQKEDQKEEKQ
Excerpt: as §1, §2

[3] = target: ATP synthase subunit beta, mitochondrial (ATP5B) (Homo sapiens, UniProt P06576)
Excerpt: as §1, §2

[4] = target: Transferrin receptor protein 1 (TFRC) (Homo sapiens, UniProt P02786)
Chain of Transferrin receptor protein 1 (TFRC) (P02786 whole entry): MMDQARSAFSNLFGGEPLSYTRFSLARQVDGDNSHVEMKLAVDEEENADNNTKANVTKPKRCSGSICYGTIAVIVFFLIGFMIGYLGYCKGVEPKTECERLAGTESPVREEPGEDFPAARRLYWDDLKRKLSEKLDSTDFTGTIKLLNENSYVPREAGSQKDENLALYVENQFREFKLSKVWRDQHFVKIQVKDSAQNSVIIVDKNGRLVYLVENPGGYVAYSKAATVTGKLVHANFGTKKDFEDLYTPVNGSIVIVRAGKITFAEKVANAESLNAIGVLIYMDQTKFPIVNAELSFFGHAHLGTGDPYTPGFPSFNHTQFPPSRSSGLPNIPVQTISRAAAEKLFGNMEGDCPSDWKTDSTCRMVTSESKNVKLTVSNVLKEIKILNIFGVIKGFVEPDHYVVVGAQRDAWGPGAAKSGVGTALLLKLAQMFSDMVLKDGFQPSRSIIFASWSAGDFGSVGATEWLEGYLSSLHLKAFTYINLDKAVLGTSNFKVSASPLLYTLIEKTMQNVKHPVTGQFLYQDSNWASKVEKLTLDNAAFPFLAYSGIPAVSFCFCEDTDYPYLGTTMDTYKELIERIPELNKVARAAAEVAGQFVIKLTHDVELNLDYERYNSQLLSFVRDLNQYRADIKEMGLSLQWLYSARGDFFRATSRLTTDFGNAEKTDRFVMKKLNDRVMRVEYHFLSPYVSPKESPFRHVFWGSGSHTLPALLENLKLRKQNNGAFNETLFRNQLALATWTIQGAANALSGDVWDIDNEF
Excerpt: as §1, §2

[5] = target: ATP synthase subunit alpha, mitochondrial (ATP5A1) (Homo sapiens, UniProt P25705)
Excerpt: as §1, §2

Serum albumin (ALB) = Serum albumin (ALB) (Homo sapiens, UniProt P02768)
Chain of Serum albumin (ALB) (P02768 25-609): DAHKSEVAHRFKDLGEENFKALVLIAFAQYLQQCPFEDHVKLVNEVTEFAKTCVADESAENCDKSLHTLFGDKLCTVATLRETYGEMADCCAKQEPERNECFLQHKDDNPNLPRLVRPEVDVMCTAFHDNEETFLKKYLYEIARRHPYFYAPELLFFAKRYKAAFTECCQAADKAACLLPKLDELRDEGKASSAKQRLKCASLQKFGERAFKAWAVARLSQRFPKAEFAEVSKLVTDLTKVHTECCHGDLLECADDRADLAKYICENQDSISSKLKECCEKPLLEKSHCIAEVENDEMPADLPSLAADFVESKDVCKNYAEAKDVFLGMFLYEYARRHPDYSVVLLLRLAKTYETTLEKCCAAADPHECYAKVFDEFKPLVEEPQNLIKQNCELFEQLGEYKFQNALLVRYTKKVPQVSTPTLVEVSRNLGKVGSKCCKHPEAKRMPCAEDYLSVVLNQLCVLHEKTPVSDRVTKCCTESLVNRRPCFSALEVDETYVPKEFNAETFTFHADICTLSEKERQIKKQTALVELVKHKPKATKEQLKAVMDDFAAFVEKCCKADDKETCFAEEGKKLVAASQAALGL
Excerpt: as §1, §2

[6] = sheet Exp1, SKBR3 cells, 11 0.5 µM 3 h vs DMSO
[7] = sheet Exp1, SKBR3 cells, 11 0.5 µM 3 h vs with PU-H71 10 µM
[8] = sheet Merged, SKBR3 cells, 11 0.5 µM 3 h vs DMSO
[9] = sheet Merged, SKBR3 cells, 11 0.5 µM 3 h vs with PU-H71 10 µM

Chain of Heat shock protein HSP 90-beta (HSP90AB1) (P08238 whole entry): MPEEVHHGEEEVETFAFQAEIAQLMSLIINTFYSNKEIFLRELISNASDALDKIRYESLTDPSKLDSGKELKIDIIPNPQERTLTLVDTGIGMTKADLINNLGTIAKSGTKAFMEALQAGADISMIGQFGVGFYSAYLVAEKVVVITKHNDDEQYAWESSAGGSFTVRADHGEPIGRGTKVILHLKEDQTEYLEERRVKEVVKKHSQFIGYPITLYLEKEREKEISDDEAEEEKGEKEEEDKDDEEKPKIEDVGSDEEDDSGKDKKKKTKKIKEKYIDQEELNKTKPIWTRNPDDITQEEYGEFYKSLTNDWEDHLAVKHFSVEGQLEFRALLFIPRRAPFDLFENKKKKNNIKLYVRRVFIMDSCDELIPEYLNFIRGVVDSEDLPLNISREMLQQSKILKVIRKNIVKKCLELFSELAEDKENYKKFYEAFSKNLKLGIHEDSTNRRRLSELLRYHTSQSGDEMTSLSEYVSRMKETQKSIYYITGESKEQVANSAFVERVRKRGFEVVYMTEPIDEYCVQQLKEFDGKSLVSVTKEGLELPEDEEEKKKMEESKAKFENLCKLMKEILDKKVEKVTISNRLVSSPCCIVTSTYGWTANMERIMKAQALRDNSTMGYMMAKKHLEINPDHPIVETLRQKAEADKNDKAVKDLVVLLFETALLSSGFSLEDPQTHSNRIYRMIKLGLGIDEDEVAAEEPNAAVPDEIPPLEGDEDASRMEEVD

Abundance Ratio: (11) / (11 with PU-H71) ([1]; Exp3, HSP90AB1): 3.363 | Abundance Ratio: (11) / (DMSO) ([1]; Exp3, HSP90AB1): 10.531 | Abundances (Grouped): 11 ([1]; Exp3, HSP90AB1): 3418.4 | Abundances (Grouped): 11 with PU-H71 ([1]; Exp3, HSP90AB1): 1016.5 | Abundance Ratio: (11) / (DMSO) [1, 6]: 8.2 | Abundance Ratio: (11) / (11 with PU-H71) [1, 7]: 3.253 | Abundance Ratio: (11) / (11 with PU-H71) ([1]; sheet Exp2, HSP90AB1): 3.262 | Abundance Ratio: (11) / (DMSO) ([1]; sheet Exp2, HSP90AB1): 9.509 | Abundances (Grouped): 11 ([1]; sheet Exp2, HSP90AB1): 4464.4 | Abundances (Grouped): 11 with PU-H71 ([1]; sheet Exp2, HSP90AB1): 1368.7 | Abundance Ratio: (11) / (DMSO) [1, 8]: 9.3 and 9.344 | Abundance Ratio: (11) / (11 with PU-H71) [1, 9]: 3.227 | Abundance Ratio: (11) / (11 with PU-H71) ([2]; Exp3, HSPA9): 0.949 | Abundance Ratio: (11) / (DMSO) ([2]; Exp3, HSPA9): 2.217 | Abundances (Grouped): 11 ([2]; Exp3, HSPA9): 31.7 | Abundances (Grouped): 11 with PU-H71 ([2]; Exp3, HSPA9, with PU-H71): 33.4 | Abundance Ratio: (11) / (DMSO) [2, 8]: 2.217 | Abundance Ratio: (11) / (11 with PU-H71) [2, 9]: 0.949 | Abundance Ratio: (11) / (11 with PU-H71) ([3]; sheet Exp2, ATP5B): 0.866 | Abundance Ratio: (11) / (DMSO) ([3]; sheet Exp2, ATP5B): 1.928 | Abundances (Grouped): 11 ([3]; sheet Exp2, ATP5B): 141.5 | Abundances (Grouped): 11 with PU-H71 ([3]; sheet Exp2, ATP5B, with PU-H71): 163.4 | Abundance Ratio: (11) / (DMSO) [3, 8]: 1.928 | Abundance Ratio: (11) / (11 with PU-H71) [3, 9]: 0.866 | Abundance Ratio: (11) / (DMSO) [4, 6]: 1.5 | Abundance Ratio: (11) / (11 with PU-H71) [4, 7]: 0.917 | Abundance Ratio: (11) / (11 with PU-H71) ([4]; sheet Exp2, TFRC): 1.036 | Abundance Ratio: (11) / (DMSO) ([4]; sheet Exp2, TFRC): 2.96 | Abundances (Grouped): 11 ([4]; sheet Exp2, TFRC): 95.6 | Abundances (Grouped): 11 with PU-H71 ([4]; sheet Exp2, TFRC, with PU-H71): 92.3 | Abundance Ratio: (11) / (DMSO) [4, 8]: 2.107 | Abundance Ratio: (11) / (11 with PU-H71) [4, 9]: 0.975 | Abundance Ratio: (11) / (11 with PU-H71) ([5]; Exp3, ATP5A1): 0.84 | Abundance Ratio: (11) / (DMSO) ([5]; Exp3, ATP5A1): 3.573 | Abundances (Grouped): 11 ([5]; Exp3, ATP5A1): 381.2 | Abundances (Grouped): 11 with PU-H71 ([5]; Exp3, ATP5A1): 453.7 | Abundance Ratio: (11) / (DMSO) [5, 6]: 3.323 | Abundance Ratio: (11) / (11 with PU-H71) [5, 7]: 0.923 | Abundance Ratio: (11) / (11 with PU-H71) ([5]; sheet Exp2, ATP5A1): 0.771 | Abundance Ratio: (11) / (DMSO) ([5]; sheet Exp2, ATP5A1): 3.865 | Abundances (Grouped): 11 ([5]; sheet Exp2, ATP5A1): 390.8 | Abundances (Grouped): 11 with PU-H71 ([5]; sheet Exp2, ATP5A1): 506.9 | Abundance Ratio: (11) / (DMSO) [5, 8]: 3.663 | Abundance Ratio: (11) / (11 with PU-H71) [5, 9]: 0.771 | Abundance Ratio: (11) / (11 with PU-H71) (Serum albumin (ALB); Exp3, ALB): 0.706 | Abundance Ratio: (11) / (DMSO) (Serum albumin (ALB); Exp3, ALB): 1.152 | Abundances (Grouped): 11 (Serum albumin (ALB); Exp3, ALB): 132.6 | Abundances (Grouped): 11 with PU-H71 (Serum albumin (ALB); Exp3, ALB): 187.7 | Abundance Ratio: (11) / (DMSO) (Serum albumin (ALB); [6]): 0.969 | Abundance Ratio: (11) / (11 with PU-H71) (Serum albumin (ALB); [7]): 0.846 | Abundance Ratio: (11) / (11 with PU-H71) (Serum albumin (ALB); sheet Exp2, ALB): 0.796 | Abundance Ratio: (11) / (DMSO) (Serum albumin (ALB); sheet Exp2, ALB): 0.967 | Abundances (Grouped): 11 (Serum albumin (ALB); sheet Exp2, ALB): 219.9 | Abundances (Grouped): 11 with PU-H71 (Serum albumin (ALB); sheet Exp2, ALB): 276.3 | Abundance Ratio: (11) / (DMSO) (Serum albumin (ALB); [8]): 0.969 | Abundance Ratio: (11) / (11 with PU-H71) (Serum albumin (ALB); [9]): 0.846
Compound: CC(=O)Oc1ccc2c(c1)Oc1cc(OC(C)=O)ccc1C21OC(=O)c2cc(C(=O)NCCOCCOCCNC(=O)CCCC(=O)N(CC#N)S(=O)(=O)c3ccc(C(=O)NCCCn4c(Sc5cc6c(cc5I)OCO6)nc5c(N)ncnc54)cc3)ccc21 [compound 11]
